Assay results published in paper PMC5991599, “Anti‐tumor efficacy of a novel CLK inhibitor via targeting RNA splicing and MYC‐dependent vulnerability” (EMBO Molecular Medicine, 2018).

Legend:
[1] = system: SUM-159 xenografts; experiment: In vivo anti-tumor efficacy study in SUM-159 xenografts; conditions: authors' response in review process file
Text: EMBO Molecular Medicine - Peer Review Process File altering the spliciosome in non transformed cells (i.e. human mammary epithelial cells or MCF10A immortalized but not transform cells)
Although alternative splicing of BCLAF1 is reported to have an additional function in colorectal cancer (Zhou et al, 2014), the reported AS variant was different from the AS variant (lacking exon […]
AS in both cancer cell lines (HCT116) and untransformed cell lines (hTERT) (Funnell et al, 2017). […]
specific to transformed cells.
BJ) had relatively low expression of CLK2 and less growth-suppressive sensitivity to T-025 (Fig […]
rendered cancer cells more sensitive to T-025. […]
short-term treatment with T-025 causes apoptosis only in cancer cells with high expression of CLK2 or with activated MYC, but not in normal tissue. Therefore, in the mouse model, intermittent […]
- Figure 4 D, E, and F: it is not specified the name of all cancer dell lines used in the study. This is […]
relevant the work. If only SKBR3 and AU565 cell lines have a high MYC CVN, and consequently are more sensitive to T-025, why did the authors use MDA-MB 468 cell line to do the experiments of Figure 2 and 3? Please clarify. In addition, confirmation in an alternative breast cancer cell line is […]

[2] = target: T1, HIPK2 (Homo sapiens, UniProt Q9H2X6); experiment: KINOMEScan-based kinase selectivity assay; format: binding; design: purchased DiscoverX Corporation (Fremont, CA, USA)
Experimental: (§1) The KINOMEScan‐based kinase selectivity assay was performed at the DiscoverX Corporation (Fremont, CA, USA). The panel of growth inhibition assay and subsequent bioinformatics analysis (Fig EV1) were performed at Eurofins Inc. (St. […] Details of the procedures of cell proliferation assay, caspase‐3/7 activity assay, immunoblotting, and immunohistochemistry are described in Appendix Supplementary Methods.

[3] = target: DYRK1B (Homo sapiens, UniProt Q9Y463); experiment: KINOMEScan-based kinase selectivity assay; format: binding; design: purchased DiscoverX Corporation (Fremont, CA, USA)
Experimental: as §1

[4] = target: T1, HIPK2; experiment: Immunoblotting of pS46 p53, direct phosphorylation site of HIPK2, in cells; format: cell-based; conditions: up to 1000 nmol/L; immunoblot from Fig 2A samples (MDA-MB-468, 6 h)
Text: EMBO Molecular Medicine - Peer Review Process File
PRS6KB1 was observed by RNAi of CLK2 and T-025.
It had already been reported that ASs induced by […]
that T-025 and depletion of CLKs caused a similar splicing effect.
Furthermore, T3, another CLK […]
and increased MYC-dependent vulnerability (Fig EV4). […]
phosphorylation, at a direct phosphorylation site of HIPK2, up to 1000 nmol/L (see below, from Fig.
In quantifying the bands of pCLK2, the background of this immunoblotting around 50 kDa was relatively high and the band was shifted in the T-025 treated samples (below); thus, we could not […]
BF is undefined and ∆PSI is not clearly defined. If ∆PSI is really "percentage splice-in", none of the effects is significant. The normalization of ∆PSI is unclear. In Figure 2E, the difference between […]
According to the MISO software, the Bayer Factor (BF) represents the weight of the evidence in the data in favor of differential expression versus the weight of evidence not in favor. For example, a © European Molecular Biology Organization 13 […]

[5] = system: Wi38; experiment: Cell proliferation assay (CellTiter-Glo); format: cell-based; conditions: Homo sapiens, WI-38; 72 h treatment; normal lung fibroblast; read-out: IC50 (growth inhibition)
Experimental: (§2) Cell proliferation assay, Caspase-3/7 assay
(§3) Cell proliferation was measured using CellTiter-Glo luminescent cell viability
(§4) assay (Promega, Fitchburg, WI, U.S.A.). Caspase-3/7 activity was measured using
(§5) Caspase-Glo 3/7 Assay Systems (Promega). Luminescence of each well was measured
(§6) using ARVO Light (PerkinElmer Inc., Waltham, MA, U.S.A.). The IC50 value and 95%
(§7) confidential intervals were estimated using GraphPad Prism 5 (GraphPad Software,
(§8) Inc., La Jolla, CA, U.S.A.). […]

[6] = system: 786-O; experiment: Cell proliferation assay (CellTiter-Glo); format: cell-based; conditions: Homo sapiens, 786-0; 72 h treatment; kidney cancer; read-out: IC50 (growth inhibition)
Experimental: as §2, §3, §4, §5, §6, §7, §8

[7] = system: MDA-MB-468; experiment: Cell proliferation assay (CellTiter-Glo); format: cell-based; conditions: Homo sapiens, 72 h treatment, breast cancer, read-out: IC50 (growth inhibition)
Experimental: as §2, §3, §4, §5, §6, §7, §8

[8] = system: NCI-H1048; experiment: Cell proliferation assay (CellTiter-Glo); format: cell-based; conditions: Homo sapiens, 72 h treatment, lung cancer, read-out: IC50 (growth inhibition)
Experimental: as §2, §3, §4, §5, §6, §7, §8

[9] = system: BJ; experiment: Cell proliferation assay (CellTiter-Glo); format: cell-based; conditions: Homo sapiens, 72 h treatment, normal skin fibroblast, read-out: IC50 (growth inhibition)
Experimental: as §2, §3, §4, §5, §6, §7, §8

[10] = system: COLO320HSR; experiment: Cell proliferation assay (CellTiter-Glo); format: cell-based; conditions: Homo sapiens, COLO-320-HSR; 72 h treatment; colorectal cancer; read-out: IC50 (growth inhibition)
Experimental: as §2, §3, §4, §5, §6, §7, §8

[11] = target: T2, FLT3 D835Y (Homo sapiens, UniProt P36888, D835Y); experiment: KINOMEScan-based kinase selectivity assay; format: binding; conditions: 300 nmol/L, n = 2
T2 construct: purchased DiscoverX Corporation (Fremont, CA, USA)
Experimental: (§9) The KINOMEScan‐based kinase selectivity assay was performed at the DiscoverX Corporation (Fremont, CA, USA). The panel of growth inhibition assay and subsequent bioinformatics analysis (Fig EV1) were performed at Eurofins Inc. (St. Charles, MO, USA), using OncoPanel 240 or 60. Details of the procedures of cell proliferation assay, caspase‐3/7 activity assay, immunoblotting, and immunohistochemistry are described in Appendix Supplementary Methods.

[12] = target: T3, HIPK4 (Homo sapiens, UniProt Q8NE63); experiment: KINOMEScan-based kinase selectivity assay; format: binding; conditions: 300 nmol/L, n = 2
T3 construct: purchased DiscoverX Corporation (Fremont, CA, USA)
Experimental: as §9

[13] = target: T4, HIPK3 (Homo sapiens, UniProt Q9H422); experiment: KINOMEScan-based kinase selectivity assay; format: binding; conditions: 300 nmol/L, n = 2
T4 construct: purchased DiscoverX Corporation (Fremont, CA, USA)
Experimental: as §9

T1 sequence (Q9H2X6 whole entry): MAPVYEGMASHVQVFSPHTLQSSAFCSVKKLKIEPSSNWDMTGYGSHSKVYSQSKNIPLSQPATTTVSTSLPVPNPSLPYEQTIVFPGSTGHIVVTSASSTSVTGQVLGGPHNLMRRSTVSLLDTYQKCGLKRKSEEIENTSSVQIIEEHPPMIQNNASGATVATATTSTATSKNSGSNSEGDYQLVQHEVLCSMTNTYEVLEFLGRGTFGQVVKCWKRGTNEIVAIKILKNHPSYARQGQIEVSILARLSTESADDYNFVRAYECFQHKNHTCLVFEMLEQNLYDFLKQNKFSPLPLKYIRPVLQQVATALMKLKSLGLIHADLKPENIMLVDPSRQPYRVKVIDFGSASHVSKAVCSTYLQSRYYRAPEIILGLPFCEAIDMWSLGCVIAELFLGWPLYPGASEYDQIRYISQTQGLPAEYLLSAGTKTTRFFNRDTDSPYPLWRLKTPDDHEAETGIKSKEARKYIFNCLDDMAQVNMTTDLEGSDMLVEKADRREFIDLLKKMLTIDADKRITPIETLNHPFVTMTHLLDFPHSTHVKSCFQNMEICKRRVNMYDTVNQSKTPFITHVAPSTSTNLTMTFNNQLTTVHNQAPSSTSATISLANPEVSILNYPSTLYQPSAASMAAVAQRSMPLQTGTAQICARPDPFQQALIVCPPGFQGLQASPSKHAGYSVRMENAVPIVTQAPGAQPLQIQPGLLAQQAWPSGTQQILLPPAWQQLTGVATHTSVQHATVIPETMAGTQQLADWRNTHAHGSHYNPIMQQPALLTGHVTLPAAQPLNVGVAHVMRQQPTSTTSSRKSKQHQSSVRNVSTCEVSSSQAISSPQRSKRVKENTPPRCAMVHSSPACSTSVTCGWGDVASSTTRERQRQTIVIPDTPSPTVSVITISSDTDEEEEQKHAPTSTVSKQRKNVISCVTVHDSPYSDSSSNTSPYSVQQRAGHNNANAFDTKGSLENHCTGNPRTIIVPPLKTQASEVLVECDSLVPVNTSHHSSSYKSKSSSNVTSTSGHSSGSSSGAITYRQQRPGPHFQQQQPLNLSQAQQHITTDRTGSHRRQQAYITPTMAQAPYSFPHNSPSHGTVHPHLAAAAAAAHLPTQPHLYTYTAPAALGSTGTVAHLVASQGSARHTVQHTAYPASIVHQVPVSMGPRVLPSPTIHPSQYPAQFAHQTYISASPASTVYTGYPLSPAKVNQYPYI
Chain of DYRK1B (Q9Y463 whole entry): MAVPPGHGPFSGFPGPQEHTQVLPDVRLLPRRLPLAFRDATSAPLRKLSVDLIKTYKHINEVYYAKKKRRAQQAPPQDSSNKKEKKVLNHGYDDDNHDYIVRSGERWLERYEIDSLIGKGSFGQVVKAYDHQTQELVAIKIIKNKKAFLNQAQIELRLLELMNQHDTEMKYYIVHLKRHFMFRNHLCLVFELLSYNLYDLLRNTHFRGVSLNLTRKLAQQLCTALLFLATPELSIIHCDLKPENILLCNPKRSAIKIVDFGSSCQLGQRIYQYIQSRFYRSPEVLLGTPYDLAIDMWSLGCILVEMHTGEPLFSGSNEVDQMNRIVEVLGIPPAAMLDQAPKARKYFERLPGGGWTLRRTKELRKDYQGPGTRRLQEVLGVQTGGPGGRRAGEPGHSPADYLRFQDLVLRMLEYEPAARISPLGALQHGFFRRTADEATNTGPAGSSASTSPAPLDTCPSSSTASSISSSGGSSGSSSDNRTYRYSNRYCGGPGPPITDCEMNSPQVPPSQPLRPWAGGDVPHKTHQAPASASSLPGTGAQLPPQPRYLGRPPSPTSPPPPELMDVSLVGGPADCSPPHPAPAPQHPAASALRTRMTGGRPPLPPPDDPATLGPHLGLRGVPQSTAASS
T4 sequence (Q9H422 whole entry): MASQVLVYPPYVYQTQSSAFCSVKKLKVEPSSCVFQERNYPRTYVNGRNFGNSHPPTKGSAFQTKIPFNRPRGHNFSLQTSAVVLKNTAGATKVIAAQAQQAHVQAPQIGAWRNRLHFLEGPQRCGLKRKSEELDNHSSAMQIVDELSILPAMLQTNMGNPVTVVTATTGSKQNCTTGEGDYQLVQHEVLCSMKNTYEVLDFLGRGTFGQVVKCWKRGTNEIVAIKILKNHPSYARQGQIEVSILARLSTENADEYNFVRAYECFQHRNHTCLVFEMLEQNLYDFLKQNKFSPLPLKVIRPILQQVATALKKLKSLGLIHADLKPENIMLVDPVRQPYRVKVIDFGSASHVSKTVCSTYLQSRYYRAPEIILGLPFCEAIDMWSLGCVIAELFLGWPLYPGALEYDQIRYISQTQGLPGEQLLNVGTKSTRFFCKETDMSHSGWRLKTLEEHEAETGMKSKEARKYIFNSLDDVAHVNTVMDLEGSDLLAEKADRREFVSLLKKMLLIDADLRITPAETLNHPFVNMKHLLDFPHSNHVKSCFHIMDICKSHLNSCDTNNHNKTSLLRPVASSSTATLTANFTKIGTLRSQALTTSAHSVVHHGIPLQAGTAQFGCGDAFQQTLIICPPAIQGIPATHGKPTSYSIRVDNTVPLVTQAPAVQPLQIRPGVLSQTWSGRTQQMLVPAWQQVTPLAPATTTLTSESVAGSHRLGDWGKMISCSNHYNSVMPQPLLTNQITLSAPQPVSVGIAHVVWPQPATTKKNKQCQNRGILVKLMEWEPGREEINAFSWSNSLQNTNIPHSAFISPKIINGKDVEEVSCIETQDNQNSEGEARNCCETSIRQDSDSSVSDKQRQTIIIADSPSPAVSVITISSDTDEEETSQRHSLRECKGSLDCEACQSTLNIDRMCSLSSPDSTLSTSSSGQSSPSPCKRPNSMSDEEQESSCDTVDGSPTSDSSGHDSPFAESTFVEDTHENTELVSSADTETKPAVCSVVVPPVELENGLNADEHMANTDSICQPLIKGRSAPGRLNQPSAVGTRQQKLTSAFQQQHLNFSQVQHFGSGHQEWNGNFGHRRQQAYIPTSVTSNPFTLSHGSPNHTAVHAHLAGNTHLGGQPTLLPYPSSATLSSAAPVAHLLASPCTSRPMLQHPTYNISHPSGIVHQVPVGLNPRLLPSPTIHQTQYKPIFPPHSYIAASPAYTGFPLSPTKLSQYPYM
T3 sequence (Q8NE63 whole entry): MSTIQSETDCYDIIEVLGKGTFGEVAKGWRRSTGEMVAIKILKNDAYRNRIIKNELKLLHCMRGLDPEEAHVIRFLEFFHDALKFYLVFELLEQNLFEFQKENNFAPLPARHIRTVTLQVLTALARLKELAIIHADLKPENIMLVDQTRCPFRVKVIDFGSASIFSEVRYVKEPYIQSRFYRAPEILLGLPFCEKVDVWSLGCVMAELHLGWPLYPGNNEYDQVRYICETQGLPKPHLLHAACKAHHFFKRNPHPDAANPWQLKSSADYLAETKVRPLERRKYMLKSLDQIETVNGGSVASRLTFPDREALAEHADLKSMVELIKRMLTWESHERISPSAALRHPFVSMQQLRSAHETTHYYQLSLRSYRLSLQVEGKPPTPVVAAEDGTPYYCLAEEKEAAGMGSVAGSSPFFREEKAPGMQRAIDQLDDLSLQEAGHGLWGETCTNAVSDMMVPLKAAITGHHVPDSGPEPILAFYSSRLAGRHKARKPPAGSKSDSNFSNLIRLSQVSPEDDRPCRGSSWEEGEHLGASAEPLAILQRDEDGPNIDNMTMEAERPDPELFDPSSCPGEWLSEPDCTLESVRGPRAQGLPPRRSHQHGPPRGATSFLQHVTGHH

## CNc1nc(NCc2ncccn2)c2c(-c3ccc4ncccc4c3)c[nH]c2n1 [T-025, N ^2‐methyl‐N ^4‐[pyrimidin‐2‐ylmethyl]‐5‐[quinolin‐6‐yl]‐7H‐pyrrolo[2,3‐d]pyrimidine‐2,4‐diamine]
[1]
  anti-tumor efficacy: showed significant anti-tumor properties
[2]
  Kd: 96 nM
[2]; 300 nmol/L, n = 2
  inhibition at 0.3 µM: 96%
[3]
  Kd: 1.5 nM
[3]; 300 nmol/L, n = 2
  inhibition at 0.3 µM: 99.6%
[4]
  inhibition of HIPK2 in cells (pS46 p53 phosphorylation): did not inhibit HIPK2
[5]
  IC50: 257 nM
[6]
  IC50: 340 nM
[7]
  IC50: 79.8 nM
[8]
  IC50: 84.4 nM
[9]
  IC50: 355 nM
[10]
  IC50: 91.8 nM
[11]
  inhibition at 0.3 µM: 93.3%
[12]
  inhibition at 0.3 µM: 95.6%
[13]
  inhibition at 0.3 µM: 95.1%
